Active and inactive are the calls of the source.
Experiments:
[1] = biological target: T1, Kappa-type opioid receptor (Homo sapiens, UniProt P41145); assay: SAR analysis of small molecule antagonists of the kappa opioid receptor via a luminescent beta-arrestin assay - Set 4. [Related pubchem assays (depositor defined):AID1777, AID1778, AID1785, AID1786, AID1966, AID2133, AID2136, AID2285]; assay type: functional
[2] = biological target: T1, Kappa-type opioid receptor; assay: SAR analysis of small molecule antagonists of the kappa opioid receptor via a luminescent beta-arrestin assay - Set 5. [Related pubchem assays (depositor defined):AID1778, AID1785]; assay type: functional
[3] = biological target: Sphingosine 1-phosphate receptor 1 (Homo sapiens, UniProt P21453); assay: Fluorescence-based counterscreen assay for S1P4 agonists: Cell-based dose response high throughput screening assay to identify agonists of the Sphingosine 1-Phosphate Receptor 1 (S1P1). [Related pubchem assays (depositor defined):AID1509, AID1523, AID1801, AID463107, AID463118, AID463119, AID463122, AID463123, AID463129, AID463225, AID504400, AID504460]; assay type: functional
Sequence of Sphingosine 1-phosphate receptor 1 (P21453 whole entry): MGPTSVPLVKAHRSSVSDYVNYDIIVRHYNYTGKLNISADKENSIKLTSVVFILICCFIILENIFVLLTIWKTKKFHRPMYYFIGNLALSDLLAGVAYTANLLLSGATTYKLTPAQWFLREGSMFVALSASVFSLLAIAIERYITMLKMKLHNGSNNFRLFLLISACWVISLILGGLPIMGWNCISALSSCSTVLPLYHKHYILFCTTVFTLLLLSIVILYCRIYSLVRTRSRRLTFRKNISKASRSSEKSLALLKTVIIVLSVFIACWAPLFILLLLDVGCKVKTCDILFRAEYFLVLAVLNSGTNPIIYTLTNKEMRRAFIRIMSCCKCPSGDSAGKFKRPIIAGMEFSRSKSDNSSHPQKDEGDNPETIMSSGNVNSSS

[4] = biological target: T2, Sphingosine 1-phosphate receptor 4 (Homo sapiens, UniProt O95977); assay: Fluorescence dose response cell-based high throughput screening assay for agonists of the Sphingosine 1-Phosphate Receptor 4 (S1P4). [Related pubchem assays: 1509 (Primary screen.), 1523 (Confirmation screen in triplicates.)]; assay type: functional
T2 sequence (O95977 whole entry): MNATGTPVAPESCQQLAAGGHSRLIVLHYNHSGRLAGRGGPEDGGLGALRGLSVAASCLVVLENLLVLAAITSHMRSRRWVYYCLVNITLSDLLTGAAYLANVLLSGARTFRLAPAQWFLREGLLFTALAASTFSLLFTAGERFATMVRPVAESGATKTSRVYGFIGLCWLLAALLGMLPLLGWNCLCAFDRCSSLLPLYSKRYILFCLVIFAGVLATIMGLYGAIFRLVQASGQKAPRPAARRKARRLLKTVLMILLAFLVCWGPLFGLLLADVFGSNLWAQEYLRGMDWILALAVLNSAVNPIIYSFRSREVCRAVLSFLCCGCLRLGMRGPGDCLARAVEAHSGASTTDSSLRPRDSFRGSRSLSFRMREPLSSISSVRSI

[5] = biological target: T1, Kappa-type opioid receptor; assay: kappa opioid receptor activation by imaging – image-based, set 3, SAR follow-up (AID 488833); assay type: functional
[6] = biological target: Mu-type opioid receptor (Homo sapiens, UniProt P35372); assay: SAR Analysis of Agonists of the MOR Receptor using an Image-Based Assay - Set 3. [Related pubchem assays (depositor defined):AID1777, AID1785, AID1786, AID1966, AID2133, AID2136, AID2284, AID2285, AID2352]; assay type: functional
Sequence of Mu-type opioid receptor (P35372 whole entry): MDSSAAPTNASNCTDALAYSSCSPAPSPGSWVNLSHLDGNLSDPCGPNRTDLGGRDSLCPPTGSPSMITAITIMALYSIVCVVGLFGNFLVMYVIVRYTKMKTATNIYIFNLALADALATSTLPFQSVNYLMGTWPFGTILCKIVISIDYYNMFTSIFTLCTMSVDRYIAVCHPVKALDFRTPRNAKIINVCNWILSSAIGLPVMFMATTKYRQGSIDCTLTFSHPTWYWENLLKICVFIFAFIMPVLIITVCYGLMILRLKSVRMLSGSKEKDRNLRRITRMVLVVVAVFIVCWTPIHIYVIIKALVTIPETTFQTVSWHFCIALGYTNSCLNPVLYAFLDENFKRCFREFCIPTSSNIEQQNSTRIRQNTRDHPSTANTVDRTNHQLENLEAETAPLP

[7] = biological target: Delta-type opioid receptor (Homo sapiens, UniProt P41143); assay: SAR Analysis of Agonists of the DOR Receptor using an Image-Based Assay - Set 3. [Related pubchem assays (depositor defined):AID1777, AID1786]; assay type: functional
Sequence of Delta-type opioid receptor (P41143 whole entry): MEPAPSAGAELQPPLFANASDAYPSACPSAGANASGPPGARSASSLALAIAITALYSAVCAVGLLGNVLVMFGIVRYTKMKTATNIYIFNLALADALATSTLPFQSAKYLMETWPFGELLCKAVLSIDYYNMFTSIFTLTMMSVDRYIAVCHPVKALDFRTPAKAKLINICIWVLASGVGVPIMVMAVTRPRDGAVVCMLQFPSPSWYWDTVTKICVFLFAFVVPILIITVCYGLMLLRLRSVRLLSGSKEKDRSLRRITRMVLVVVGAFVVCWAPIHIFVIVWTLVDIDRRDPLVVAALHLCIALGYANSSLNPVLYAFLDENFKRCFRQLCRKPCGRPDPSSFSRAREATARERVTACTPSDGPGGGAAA

[8] = biological target: T1, Kappa-type opioid receptor; assay: SAR analysis of small molecule agonists of the kappa opioid receptor via a luminescent beta-arrestin assay - Set 3. [Related pubchem assays (depositor defined):AID1777, AID1785, AID1786, AID1966, AID2133, AID2136, AID2284, AID2500]; assay type: functional
[9] = biological target: DNA dC->dU-editing enzyme APOBEC-3G (Homo sapiens, UniProt Q9HC16); assay type: functional;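 further: Dose-response counterscreen measuring inhibition of APOBEC3G DNA deaminase activity, run while confirming APOBEC3A inhibitors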
Sequence of DNA dC->dU-editing enzyme APOBEC-3G (Q9HC16 whole entry): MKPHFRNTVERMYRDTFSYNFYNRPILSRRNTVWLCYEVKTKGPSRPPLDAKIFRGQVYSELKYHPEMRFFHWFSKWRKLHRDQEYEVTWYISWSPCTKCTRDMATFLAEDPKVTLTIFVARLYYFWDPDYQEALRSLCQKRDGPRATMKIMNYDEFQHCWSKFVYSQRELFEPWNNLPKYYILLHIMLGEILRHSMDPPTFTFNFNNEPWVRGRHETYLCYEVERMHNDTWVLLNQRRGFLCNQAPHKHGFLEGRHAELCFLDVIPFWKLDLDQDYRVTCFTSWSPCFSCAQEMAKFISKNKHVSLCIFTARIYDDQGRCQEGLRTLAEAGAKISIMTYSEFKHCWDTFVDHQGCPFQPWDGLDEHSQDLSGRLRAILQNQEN

[10] = Trypanosoma cruzi growth suppression in host cells – NIH3T3 host cells, beta-gal luminescence, confirmation (AID 2044); assay type: functional, cell-based;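 further: intracellular parasites grown in NIH/3T3 mouse fibroblasts as host cells; luminescent beta-galactosidase reporter signal from transgenic T. cruzi replicating inside host cells; inhibitors lower the luminescence signal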
[11] = NIH3T3 cell viability loss – ATP luminescence, mouse fibroblasts, counter-screen, dose response (AID 2010); assay type: functional, cell-based;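 further: cells exposed to compound for about 90 hours before reading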
[12] = biological target: DNA dC->dU-editing enzyme APOBEC-3A (Homo sapiens, UniProt P31941); assay: Dose Response confirmation of small molecule APOBEC3A DNA Deaminase Inhibitors via a fluorescence-based single-stranded DNA deaminase assay. [Related pubchem assays (depositor defined):AID493011, AID493024]; assay type: functional
Sequence of DNA dC->dU-editing enzyme APOBEC-3A (P31941 whole entry): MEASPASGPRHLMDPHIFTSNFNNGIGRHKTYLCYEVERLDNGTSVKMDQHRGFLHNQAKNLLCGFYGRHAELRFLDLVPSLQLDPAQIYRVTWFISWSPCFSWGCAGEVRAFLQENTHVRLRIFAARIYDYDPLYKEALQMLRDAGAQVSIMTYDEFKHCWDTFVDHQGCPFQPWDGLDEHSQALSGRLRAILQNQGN

T1 sequence (P41145 whole entry): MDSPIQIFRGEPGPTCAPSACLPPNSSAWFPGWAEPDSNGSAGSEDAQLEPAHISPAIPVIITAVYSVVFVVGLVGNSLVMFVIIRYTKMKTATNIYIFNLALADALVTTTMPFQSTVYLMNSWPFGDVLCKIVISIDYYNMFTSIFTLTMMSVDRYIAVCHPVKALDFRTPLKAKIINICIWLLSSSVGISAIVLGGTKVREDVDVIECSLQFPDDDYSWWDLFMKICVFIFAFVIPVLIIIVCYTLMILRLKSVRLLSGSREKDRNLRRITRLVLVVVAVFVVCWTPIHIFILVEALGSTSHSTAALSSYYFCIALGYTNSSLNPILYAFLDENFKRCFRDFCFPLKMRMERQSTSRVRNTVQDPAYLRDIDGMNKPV

**Q.** What does the source list for `COc1ccc(CN(CCNC(=O)c2cccc(CNS(=O)(=O)c3ccc(C)cc3)c2)C(C)C)cc1`?
**A.** IC50 [1]: > 20 µM (inactive); IC50 [2]: 9.03 µM (active)

**Q.** Which EC50 [3] does the source give for `Clc1ccc(C2=NN(c3ccccc3)C(c3ccco3)C2)cc1` (configuration not stated) here?
**A.** The EC50 was > 5.53 µM (inactive).

**Q.** What about the EC50 [4] of the same molecule?
**A.** The EC50 was > 16.6 µM (not active).

**Q.** With `O=[N+]([O-])c1ccc(CSc2nnc(-c3ccccn3)n2Cc2ccco2)cc1` as the molecule, how does the EC50 [5] read?
**A.** The EC50 was 2.35 µM (active).

**Q.** And the EC50 [6]?
**A.** Its EC50 is > 32 µM (inactive).

**Q.** And the EC50 [7]?
**A.** Its EC50 is > 64 µM (inactive).

**Q.** And the EC50 [8]?
**A.** Its EC50 is 2.48 µM (active).

**Q.** With `CCN1CCN(c2ccc(S(=O)(=O)N3CCCCC3)cc2NC(=O)COc2ccc(F)cc2Cl)CC1` as the molecule, how does the IC50 [9] read?
**A.** Its IC50 is 5.24 µM (active).

**Q.** And the EC50 [10]?
**A.** The EC50 was 0.474 µM (active).

**Q.** And the EC50 [11]?
**A.** The EC50 was > 60 µM (not active).

**Q.** And the IC50 [12]?
**A.** The IC50 was 3.24 µM (active).

From ChEMBL document CHEMBL1201862, “PubChem BioAssay data set” (2004)
